# Assay results reported in ChEMBL document CHEMBL3286163, “The pterocarpanquinone LQB-118 inhibits tumor cell proliferation by downregulation of c-Myc and cyclins D1 and B1 mRNA and upregulation of p21 cell cycle inhibitor expression” (Bioorg Med Chem, 2014).
# Active and inactive are the calls of the source. No cut-off for these calls is given here.
# Tests used:
# Thymocyte = assay: Induction of apoptosis in mouse thymocytes assessed as internucleosomal DNA fragmentation at 1 uM after 24 hrs by agarose gel electrophoresis; assay type: functional, cell-based
# PC-3 [1] = assay: Cell cycle arrest in human PC3 cells assessed as cell accumulation at S phase at 5 ug/ml after 48 hrs by propidium idoide staining based flow cytometry (reference value: 9.8%); assay type: functional
# PC-3 [2] = assay: Increase in p21 mRNA expression in human PC3 cells at 5 ug/ml after 24 to 48 hrs by RT-PCR analysis; assay type: functional, cell-based
# PC-3 [3] = assay: Induction of apoptosis in human PC3 cells assessed as proportion of late apoptotic cells at 1.7 ug/ml after 48 hrs by annexin-V-FITC/propidium iodide staining based flow cytometry (reference value: 6.6 +/- 1.2%); assay type: functional
# PC-3 [4] = assay: Increase in c-Myc mRNA expression in human PC3 cells after 48 hrs by RT-PCR analysis; assay type: functional
# PC-3 [5] = assay: Increase in p21 protein expression in human PC3 cells at 5 ug/ml after 48 hrs by flow cytometry; assay type: functional, cell-based
# PC-3 [6] = assay: Induction of apoptosis in human PC3 cells assessed as proportion of early apoptotic cells at 5 ug/ml after 48 hrs by annexin-V-FITC/propidium iodide staining based flow cytometry (reference value: 6.7 +/- 2%); assay type: functional
# PC-3 [7] = assay: Induction of apoptosis in human PC3 cells assessed as internucleosomal DNA fragmentation at 5 ug/ml after 48 hrs by agarose gel electrophoresis; assay type: functional, cell-based
# [8] = Cytotoxicity against human RWPE1 cells assessed as inhibition of cell viability after 48 hrs by MTT assay; assay type: cell-based, RWPE-1; settings: for IC50: Homo sapiens, RWPE-1, 48 h
# PC-3 [9] = assay: Cell cycle arrest in human PC3 cells assessed as cell accumulation at G2/M phase at 5 ug/ml after 48 hrs by propidium idoide staining based flow cytometry (reference value: 22.2%); assay type: functional
# PC-3 [10] = assay: Cell cycle arrest in human PC3 cells assessed as cell accumulation at G1 phase at 1.7 ug/ml after 48 hrs by propidium idoide staining based flow cytometry (reference value: 68%); assay type: functional
# PC-3 [11] = assay: Cytotoxicity against human PC3 cells assessed as inhibition of cell viability after 48 hrs by MTT assay; assay type: functional, cell-based; settings: for IC50: PC-3, 48 h
# PC-3 [12] = assay: Decrease in cyclin D1 mRNA expression in human PC3 cells after 48 hrs by RT-PCR analysis; assay type: functional
# PC-3 [13] = assay: Induction of apoptosis in human PC3 cells assessed as proportion of late apoptotic cells at 5 ug/ml after 48 hrs by annexin-V-FITC/propidium iodide staining based flow cytometry (reference value: 6.6 +/- 1.2%); assay type: functional
# PC-3 [14] = assay: Decrease in cyclin B1 mRNA expression in human PC3 cells after 48 hrs by RT-PCR analysis; assay type: functional
# PC-3 [15] = assay: Cell cycle arrest in human PC3 cells assessed as cell accumulation at G2/M phase at 1.7 ug/ml after 48 hrs by propidium idoide staining based flow cytometry (reference value: 22.2%); assay type: functional
# PC-3 [16] = assay: Cell cycle arrest in human PC3 cells assessed as cell accumulation at S phase at 1.7 ug/ml after 48 hrs by propidium idoide staining based flow cytometry (reference value: 9.8%); assay type: functional
# PC-3 [17] = assay: Cell cycle arrest in human PC3 cells assessed as cell accumulation at G1 phase at 5 ug/ml after 48 hrs by propidium idoide staining based flow cytometry (reference value: 68%); assay type: functional
# PC-3 [18] = assay: Induction of apoptosis in human PC3 cells assessed as proportion of necrotic cells at 5 ug/ml after 48 hrs by annexin-V-FITC/propidium iodide staining based flow cytometry (reference value: 0.8 +/- 0.9%); assay type: functional
# LNCaP = assay: Cytotoxicity against human LNCAP cells assessed as inhibition of cell viability after 48 hrs by MTT assay; assay type: functional, cell-based
# PC-3 [19] = assay: Induction of apoptosis in human PC3 cells assessed as proportion of necrotic cells at 1.7 ug/ml after 48 hrs by annexin-V-FITC/propidium iodide staining based flow cytometry (reference value: 0.8 +/- 0.9%); assay type: functional
# PC-3 [20] = assay: Induction of apoptosis in human PC3 cells assessed as proportion of early apoptotic cells at 1.7 ug/ml after 48 hrs by annexin-V-FITC/propidium iodide staining based flow cytometry (reference value: 6.7 +/- 2%); assay type: functional
# [21] = Cytotoxicity against human RWPE1 cells assessed as inhibition of cell viability at 2.5 ug/ml after 48 hrs by MTT assay; assay type: cell-based; settings: rwpe-1, 48 h
# PC-3 [22] = assay: Antiproliferative activity against human PC3 cells assessed as inhibition of cell growth at 1.7 ug/ml after 48 hrs by trypan blue dye exclusion assay; assay type: functional; settings: PC-3, 48 h, read-out: GI
# PC-3 [23] = assay: Cytotoxicity against human PC3 cells assessed as inhibition of cell viability at 1 ug/ml after 48 hrs by MTT assay; assay type: functional; settings: PC-3, 48 h
# PC-3 [24] = assay: Decrease in cyclin B1 mRNA expression in human PC3 cells after 24 hrs by RT-PCR analysis; assay type: functional
# PC-3 [25] = assay: Decrease in c-Myc mRNA expression in human PC3 cells after 48 hrs by RT-PCR analysis; assay type: functional
# PC-3 [26] = assay: Increase in p21 protein expression in human PC3 cells at 5 ug/ml after 24 to 48 hrs by flow cytometry; assay type: functional, cell-based
# PC-3 [27] = assay: Decrease in cyclin D1 mRNA expression in human PC3 cells after 24 hrs by RT-PCR analysis; assay type: functional
# PC-3 [28] = assay: Antiproliferative activity against human PC3 cells assessed as inhibition of cell growth at 5 ug/ml after 72 hrs by trypan blue dye exclusion assay; assay type: functional; settings: PC-3, 72 h, read-out: GI
# PC-3 [29] = assay: Antiproliferative activity against human PC3 cells assessed as inhibition of cell growth at 5 ug/ml after 48 hrs by trypan blue dye exclusion assay; assay type: functional; settings: PC-3, 48 h, read-out: GI
# PC-3 [30] = assay: Antiproliferative activity against human PC3 cells assessed as inhibition of cell growth at 1.7 ug/ml after 24 hrs by trypan blue dye exclusion assay; assay type: functional; settings: PC-3, 24 h, read-out: GI
# PC-3 [31] = assay: Antiproliferative activity against human PC3 cells assessed as inhibition of cell growth at 5 ug/ml after 24 hrs by trypan blue dye exclusion assay; assay type: functional; settings: PC-3, 24 h, read-out: GI
# PC-3 [32] = assay: Cytotoxicity against human PC3 cells assessed as inhibition of cell viability at 10 ug/ml after 48 hrs by MTT assay; assay type: functional; settings: PC-3, 48 h
# PC-3 [33] = assay: Antiproliferative activity against human PC3 cells assessed as inhibition of cell growth at 1.7 ug/ml after 72 hrs by trypan blue dye exclusion assay; assay type: functional; settings: PC-3, 72 h, read-out: GI
SMILES,Activity (PC-3 [1]) [%],Activity (PC-3 [2]),Activity (PC-3 [3]) [%],Activity (PC-3 [6]) [%],Activity (PC-3 [7]),IC50 [8] [µg/mL],Activity (PC-3 [9]) [%],Activity (PC-3 [10]) [%],IC50 (PC-3 [11]) [µg/mL],inhibition (INH) (PC-3 [12]) [%],Activity (PC-3 [13]) [%],inhibition (INH) (PC-3 [14]) [%],Activity (PC-3 [15]) [%],Activity (PC-3 [16]) [%],Activity (PC-3 [17]) [%],Activity (PC-3 [18]) [%],IC50 (LNCaP) [µg/mL],Activity (PC-3 [19]) [%],Activity (PC-3 [20]) [%],further results
C[C@@H]1C[C@H]2[C@@H]3CCC4=CC(=O)C=C[C@]4(C)[C@@]3(F)[C@@H](O)C[C@]2(C)[C@@]1(O)C(=O)CO,,,,,,,,,,,,,,,,,,,,Activity (Thymocyte): Active
CC(=O)O[C@H]1C(=O)[C@@]2(C)[C@H]([C@H](OC(=O)c3ccccc3)[C@]3(O)C[C@H](OC(=O)[C@H](O)[C@@H](NC(=O)c4ccccc4)c4ccccc4)C(C)=C1C3(C)C)[C@]1(OC(C)=O)CO[C@@H]1C[C@@H]2O [PACLITAXEL],5.8,Active,14.7,18.1,Active,0.7,79.2,25,2.9,48,18.4,44,62,13,15,1.9,1.7,0.6,21.1,Activity (PC-3 [4]): 39%; Activity (PC-3 [5]): Active
O=C1C2=C(C(=O)c3ccccc31)[C@H]1Oc3ccccc3[C@H]1CO2 [PTEROCARPANQUINONE],22.5,Active,5.7,48.3,Active,1.3,43.4,51.8,1.7,59,17.8,43,35,13.2,34.1,1.6,1.1,0.6,7.7,"Activity [21]: Non-toxic; inhibition of growth at 1.7 µg/mL (PC-3 [22]): 68%; inhibition at 1 µg/mL (PC-3 [23]): 12.8%; inhibition (INH) (PC-3 [24]): 58%; inhibition (INH) ([8]; human, rwpe-1, 48 h): Dose-dependent effect; inhibition (PC-3 [11]): Dose-dependent effect; inhibition (INH) (PC-3 [25]): 60%; Activity (PC-3 [26]): Active; inhibition (INH) (PC-3 [27]): 27%; inhibition of growth at 5 µg/mL (PC-3 [28]): 93%; inhibition of growth at 5 µg/mL (PC-3 [29]): 88%; inhibition of growth at 1.7 µg/mL (PC-3 [30]): 60%; inhibition of growth at 5 µg/mL (PC-3 [31]): 78%; inhibition at 10 µg/mL (PC-3 [32]): 92.7%; inhibition of growth at 1.7 µg/mL (PC-3 [33]): 60%"
